{"source": "paper PMC5107132", "about": "(European journal of pharmacology, 2016)", "test_system": "Wistar rats", "assay": "Rotarod test", "format": "in vivo, rat", "conditions": "15 mg/kg MP-III-022 in combination with 15 mg/kg flumazenil (FLU), i.p.", "note": "Marks after values point to notes of the source that are not given here."}
{"compound": "C#Cc1ccc2c(c1)C(c1ccccc1F)=N[C@H](C)c1c(C(=O)NC)ncn1-2", "note": "[MP-III-022, (R)-8-Ethynyl-6-(2-fluorophenyl)-N,4-dimethyl-4H-benzo[f]imidazo[1,5-a][1,4]diazepine-3-carboxamide]", "values": [{"measurement": "Rotarod, time remaining on the rod revolving at 15 rpm", "result": "175.17 ± 4.83^a,d s"}]}
